Assays:
[1] = system: S. aureus; test: Food contact sanitizing efficacy (AOAC Method 960.09); type: cell-based; conditions: pH adjusted to 2.1 with phosphoric acid, 30 seconds exposure
Protocol: (§1) Additional testing to confirm food contact sanitizing efficacy (AOAC Method 960.09) comparing three AEC surfactants was conducted where the surfactants were diluted in 500 ppm synthetic hard water and pH adjusted to 2.1 with phosphoric acid. The evaluated AEC surfactants are further described above in Table 2.

[2] = system: E. coli; test: as above; type: cell-based; conditions: pH adjusted to 2.1 with phosphoric acid, 30 seconds exposure
Protocol: as §1

[3] = 500 ppm surfactant in 500 ppm synthetic hard water
[4] = 750 ppm surfactant in 500 ppm synthetic hard water
[5] = 1000 ppm surfactant in 500 ppm synthetic hard water

Substance | Log reduction S. aureus [1, 3] | Log reduction S. aureus [1, 4] | Log reduction S. aureus [1, 5] | Log reduction E. coli [2, 3] | Log reduction E. coli [2, 4] | Log reduction E. coli [2, 5]
Capryleth-4 Carboxylic acid | >7.34 log | >7.34 log | >7.34 log | >7.59 log | >7.59 log | >7.59 log
Capryleth-6 Carboxylic acid | >7.34 log | >7.34 log | >7.34 log | 1.98 log | 3.44 log | >7.59 log
Capryleth-9 Carboxylic acid | 5.31 log | >7.34 log | >7.34 log | <1.19 log | <1.19 log | <1.19 log
